Measurements from ChEMBL document CHEMBL1140078 (J Med Chem, 2008).

Key:
in vitro [1] = settings: CD1, mouse, liver microsomes
Description: Metabolic stability in CD1 mouse liver microsomes at 10 uM after 30 mins

[2] = biological target: Phosphatidylinositol 4,5-bisphosphate 3-kinase catalytic subunit alpha isoform (Homo sapiens, UniProt P42336)
Description: Inhibition of human recombinant PI3K p110alpha expressed in Sf9 cells coexpressing p85alpha by radiometric scintillation proximity assay

in vitro [3] = settings: human, liver microsomes
Description: Metabolic stability in human liver microsomes at 10 uM after 30 mins

in vivo [4] = settings: rat, po, 10 mg/kg
in vivo [5] = settings: CD1, mouse, po, 10 mg/kg
[6] = Aqueous solubility at pH 7.4 by turbidimetric assay; assay type: physicochemical

Phosphatidylinositol 4,5-bisphosphate 3-kinase catalytic subunit alpha isoform, sequence (P42336 whole entry, canonical isoform): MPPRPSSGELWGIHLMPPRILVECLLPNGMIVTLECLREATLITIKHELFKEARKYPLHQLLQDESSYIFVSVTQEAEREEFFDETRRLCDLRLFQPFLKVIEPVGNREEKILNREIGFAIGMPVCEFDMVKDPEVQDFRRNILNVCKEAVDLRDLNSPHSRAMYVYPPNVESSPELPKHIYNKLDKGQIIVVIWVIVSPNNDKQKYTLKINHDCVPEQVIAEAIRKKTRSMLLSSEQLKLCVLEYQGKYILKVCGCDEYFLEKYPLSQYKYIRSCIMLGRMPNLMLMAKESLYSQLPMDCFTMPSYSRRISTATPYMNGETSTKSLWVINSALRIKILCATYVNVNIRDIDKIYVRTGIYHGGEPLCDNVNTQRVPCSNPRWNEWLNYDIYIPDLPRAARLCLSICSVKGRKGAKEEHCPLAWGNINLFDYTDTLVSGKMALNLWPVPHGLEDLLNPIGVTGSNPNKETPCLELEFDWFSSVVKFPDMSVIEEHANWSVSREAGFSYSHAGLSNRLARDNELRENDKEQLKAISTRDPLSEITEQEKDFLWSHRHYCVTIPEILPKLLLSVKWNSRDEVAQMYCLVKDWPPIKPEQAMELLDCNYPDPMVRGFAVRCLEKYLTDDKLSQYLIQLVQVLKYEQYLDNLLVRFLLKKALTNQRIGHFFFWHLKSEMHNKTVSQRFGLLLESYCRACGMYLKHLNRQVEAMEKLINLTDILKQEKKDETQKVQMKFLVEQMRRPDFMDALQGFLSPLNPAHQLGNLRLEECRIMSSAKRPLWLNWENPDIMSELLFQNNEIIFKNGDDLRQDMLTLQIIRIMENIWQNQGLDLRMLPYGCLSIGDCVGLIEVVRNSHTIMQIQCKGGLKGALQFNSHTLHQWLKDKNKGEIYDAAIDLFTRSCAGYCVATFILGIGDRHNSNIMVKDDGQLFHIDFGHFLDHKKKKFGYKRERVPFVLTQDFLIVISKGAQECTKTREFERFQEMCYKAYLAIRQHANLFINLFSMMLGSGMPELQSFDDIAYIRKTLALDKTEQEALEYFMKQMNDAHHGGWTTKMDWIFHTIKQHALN

## Cc1cc2nc(-c3cccc(O)c3)nc(N3CCOCC3)c2s1
In vitro [1]
  remaining at 0.5 h, 10 µM: 64%

## Cc1csc2c(N3CCOCC3)nc(-c3cccc(O)c3)nc12
[2]
  IC50: 0.021 µM
In vitro [1]
  remaining at 0.5 h, 10 µM: 5%
In vitro [3]
  remaining at 0.5 h, 10 µM: 51%

## CN1CCN(Cc2cc3nc(-c4cccc5[nH]ncc45)nc(N4CCOCC4)c3s2)CC1
In vitro [1]
  remaining at 0.5 h, 10 µM: 81%
In vitro [3]
  remaining at 0.5 h, 10 µM: 81%
In vivo [4]
  bioavailability: 37%
In vivo [5]
  bioavailability: 31%

## CN(C)Cc1cc2nc(-c3cccc(O)c3)nc(N3CCOCC3)c2s1
In vitro [1]
  remaining at 0.5 h, 10 µM: 32%
In vitro [3]
  remaining at 0.5 h, 10 µM: 74%
In vivo [5]
  bioavailability: 11%

## COCCN(C)Cc1cc2nc(-c3cccc(O)c3)nc(N3CCOCC3)c2s1
In vitro [1]
  remaining at 0.5 h, 10 µM: 13%
In vitro [3]
  remaining at 0.5 h, 10 µM: 57%
[6]
  solubility kinetic: > 100 µM

## c1cc2nc(-c3ccc4cn[nH]c4c3)nc(N3CCOCC3)c2s1
[2]
  IC50: 2.45 µM

## Oc1cccc(-c2nc(N3CCOCC3)c3sccc3n2)c1
In vitro [1]
  remaining at 0.5 h, 10 µM: 25%
In vitro [3]
  remaining at 0.5 h, 10 µM: 32%

## OCCN1CCN(Cc2cc3nc(-c4cccc(O)c4)nc(N4CCOCC4)c3s2)CC1
In vitro [1]
  remaining at 0.5 h, 10 µM: 90%
In vitro [3]
  remaining at 0.5 h, 10 µM: 90%
In vivo [4]
  bioavailability: 0%
[6]
  solubility kinetic: > 100 µM
In vivo [5]
  bioavailability: 7%

## CN1CCN(Cc2cc3nc(-c4cccc(O)c4)nc(N4CCOCC4)c3s2)CC1
In vitro [1]
  remaining at 0.5 h, 10 µM: 85%
In vitro [3]
  remaining at 0.5 h, 10 µM: 85%
In vivo [4]
  bioavailability: 2%
[6]
  solubility kinetic: > 100 µM
In vivo [5]
  bioavailability: 10%
